Reference: patent US20240115582A1, “USE OF SODIUM TRANS-[TETRACHLORIDOBIS(1H-INDAZOLE)RUTHENATE(III)] FOR TREATING CANCERS” (Bold Therapeutics Inc., priority 2020, published 2024)

Key:
BRAFMT CRC cells [1] = assay: Combination of BOLD-100 with ATRi, apoptosis (PARP/cleaved caspase-3 WB, caspase 3/7 activity, PI flow cytometry); assay type: cell-based; conditions: for cell death following BOLD-100 treatment: co-treated with BOLD-100 for 48 h, BRAFMT CRC; for apoptosis when combined with BOLD-100: in particular in BRAFMT CRC cells
Method: HT-29 and VACO432 CRC cells were co-treated with BOLD-100 and ATRi AZD6738, M4344 or Berzosertib for 48 h and apoptosis was assessed using WB analyses for PARP and cleaved caspase-3 (A) and caspase 3/7 activity assays (B). C. BRAFMT CRC cells VACO432, COL0205 and LIM2405 were co-treated with BOLD-100 and ATRi AZD6738, M4344 or Berzosertib for 48 h and apoptosis assessed by PI flow cytometry.

Degradation in water = assay type: physicochemical
Method: One skilled in the art will recognize that limiting this degradation reaction would be advantageous to obtaining the highest purity product. […] In one aspect of the invention, the sodium trans-[tetrachlorobis(1H-indazole)ruthenate (III)] solution is cooled to 4° C. during the formulation process. In another aspect of the invention, the sodium trans-[tetrachlorobis(1H-indazole)ruthenate (III)] solution is cooled to 2-8° C. during the formulation process. In another aspect of the invention, the sodium trans-[tetrachlorobis(1H-indazole)ruthenate (III)] solution is cooled to 2-15° C. during the formulation process.

BRAFMT CRC cells [2] = assay: ROS-Glo H2O2 assay; assay type: cell-based
Method: (§1) Methods: Cell Titre Glo, Annexin V/PI high content screening, Flow Cytometry, Western blotting, Caspase 8, 3/7 activity, ROS-Glo^a H2O2, RNAi assays were used. RNA seq and bioinformatic analyses were performed on BOLD-100-treated BRAFMT/WT CRC cells, using the Illumina Novoseq platform and Reactome Pathway Analysis.
(§2) A. BRAFMT CRC cells were treated with BOLD-100 for the indicated time and ATR/KAP1/CKH1/CHK2 expression/activity measured by WB. B. CRC cells were co-treated with BOLD-100 and AZD6738 for 48 h and phosphorylation/expression of ATR/KAP1 and the downstream kinases measured. C. CRC cells were treated with BOLD-100 for the indicated times and generation of ROS measured using a ROS-Glo™ H2O2 assay. D. and E. WB and caspase 3/7 activity in cells pre-treated with NAC for 3 h followed by treatment with BOLD-100 for an additional 24h.

[3] = test system: pATR^T1989, pChk1^S345 and γH2AX; assay: Western blotting of ATR/CHK1 DNA damage signalling; assay type: cell-based
Method: as §1, §2

BRAFMT CRC cells [4] = assay: Cell death / caspase 3/7 activity after BOLD-100; assay type: cell-based
Method: as §1
A.: Positive hits for primary siRNA screen against 178 target TSG. sRNA was carried out for 24 h, followed by treatment with BOLD-100 for 48 h. Forty-Six targets were identified, resulting in either increased sensitivity or resistance to BOLD-100 (based on robust z-score ±1). B. Positive hits from secondary siRNA screen using 2 additional siRNA sequences against 46 targets. C. CRC cells were pre-incubated with DMSO or 20 μM of the pan-caspase inhibitor, z-VAD-FMK for 3 h followed by treatment with BOLD-100 for 48 h following which, apoptosis was assessed by WB analyses for PARP (top) and caspase-3/7 activity assay (bottom). […] Apoptosis was assessed by WB analysis for PARP (left) and caspase-3/7 activity (right). […] Apoptosis was determined by WB for PARP (left) and caspase-3/7 activity levels (right).
A. BRAFMT CRC cells were treated with BOLD-100 for the indicated time and ATR/KAP1/CKH1/CHK2 expression/activity measured by WB. B. CRC cells were co-treated with BOLD-100 and AZD6738 for 48 h and phosphorylation/expression of ATR/KAP1 and the downstream kinases measured. […]

BRAFMT, MSS CRC cells = assay: CellTitre-Glo and Annexin V/PI sensitivity studies; assay type: cell-based; conditions: isogenic paired and non-isogenic V600E BRAFMT and BRAFWT panel
Method: Materials: A panel of isogenic paired and non-isogenic V600E BRAFMT and BRAFWT cells were used. BOLD-100, a ruthenium-based small molecule inhibitor, was obtained from BOLD Therapeutics. A FDA approved compound library was used.
as §1
As illustrated in FIG. 2. BRAFMT, CMS1 CRC cells show increased sensitivity to treatment with BOLD-100. Upper: A. BRAFMT V600E HT-29 cells were treated with BOLD-100 for the indicated time and GRP78, CHOP and PARP levels determined by Western blotting (WB). B. HT-29 cells were treated with BOLD-100 for the indicated times and HSPA5, ATF4 and DDIT3 mRNA levels quantified using RT-PCR. Raw values were normalised to the expression of housekeeping genes ACTB and GAPDH and analysed using the ΔΔCT method. Lower: A. CRC cells were treated with increasing concentrations of BOLD-100 and cell viability determined using CellTitre-Glo® assay. IC50 was calculated using Prism software package. B. CRC cells were treated with BOLD-100 for 48 h. Apoptosis was assessed using Annexin V/propidium iodide (PI) staining by high-content screening. […]

GRP78, CHOP = assay: Western blotting of UPR markers after BOLD-100; assay type: cell-based; conditions: treatment with BOLD-100
Method: as §1
As illustrated in FIG. 2. BRAFMT, CMS1 CRC cells show increased sensitivity to treatment with BOLD-100. Upper: A. BRAFMT V600E HT-29 cells were treated with BOLD-100 for the indicated time and GRP78, CHOP and PARP levels determined by Western blotting (WB). B. HT-29 cells were treated with BOLD-100 for the indicated times and HSPA5, ATF4 and DDIT3 mRNA levels quantified using RT-PCR. Raw values were normalised to the expression of housekeeping genes ACTB and GAPDH and analysed using the ΔΔCT method. Lower: A. CRC cells were treated with increasing concentrations of BOLD-100 and cell viability determined using CellTitre-Glo® assay. IC50 was calculated using Prism software package. B. CRC cells were treated with BOLD-100 for 48 h. Apoptosis was assessed using Annexin V/propidium iodide (PI) staining by high-content screening. The graph indicates the percentage of positive stained cells following treatment with 100 μM BOLD-100. Mean of 3 independent experiments is shown.

BRAFMT CRC cells [5] = assay: Combination of BOLD-100 with ATRi, cell viability (CellTitre-Glo, clonogenic survival); assay type: cell-based; conditions: in particular in BRAFMT CRC cells
Method: FDA approved drug screen targeting the significant pathways deregulated following BOLD-100 treatment in BRAFMT CRC. BRAFMT HT-29 (A) and VACO432 (B) cells were co-treated with BOLD-100, IC10, IC20, IC30 doses of 60 FDA approved drugs alone or in combination with BOLD-100 for 72 h and cell viability determined using the CellTitre-Glo® assay. Robust z-scores were calculated for combination treatment and normalized to effect of 50 μM BOLD-100. Combinations with r-Z score of <−1 were considered to enhance sensitivity to BOLD-100 treatment. Cell viability for combined BOLD-100/AZD6738 treatment was graphed using GraphPad Prism 8.0. C. Clonogenic survival assays in BRAFMT LIM2405, VACO432 and RKO CRC cells following co-treatment with BOLD-100 and AZD6738 for 14 days. Survival was graphed using GraphPad Prism 8.0.

CNCc1ccc(-c2cc(-c3nc(-c4ccc(S(=O)(=O)C(C)C)cc4)cnc3N)on2)cc1 [Berzosertib]
cell death following BOLD-100 treatment (BRAFMT CRC cells [1]): increase cell death

[Cl][Ru]([Cl])([Cl])[Cl].[Na+].c1ccc2[nH]ncc2c1.c1ccc2[nH]ncc2c1 [BOLD-100, Sodium trans-[tetrachloridobis(1H-indazole)ruthenate(III)]]
stability in water (Degradation in water): can degrade in water to Compound A
ROS (BRAFMT CRC cells [2]): acute increases in ROS
pATR^T1989, pChk1^S345 and γH2AX expression levels ([3]; BRAFMT cells): rapid and potent increases
type of cell death (BRAFMT CRC cells [4]): caspase-8 dependent cell death
IC50 (BRAFMT, MSS CRC cells): 9.25 to 31 µM
GRP78 levels (GRP78, CHOP): early decreases
expression levels of the endoplasmic reticulum stress protein CHOP (GRP78, CHOP): increases

C[C@@H]1COCCN1c1cc(C2([S@](C)(=N)=O)CC2)nc(-c2cc[nH]c3nccc2-3)n1 [AZD6738]
interaction when combined with BOLD-100 (BRAFMT CRC cells [5]): strong synergy
cell death following BOLD-100 treatment (BRAFMT CRC cells [1]): increase cell death
apoptosis when combined with BOLD-100 (BRAFMT CRC cells [1]): apoptosis

CC(=O)N[C@@H](CS)C(=O)O [NAC]
effect on BOLD-100 induced CHOP, pATR^T1989, pChk1^S345 and γH2AX levels ([3]; ROS scavenger, BRAFMT CRC cells): abrogated
effect on cell death following BOLD-100 treatment (BRAFMT CRC cells [4]; ROS scavenger): rescued cell death

Nc1nn2cc(F)cnc2c1C(=O)Nc1cncc(F)c1N1CCC(C(=O)N2CCN(C3COC3)CC2)CC1 [M4344]
interaction when combined with BOLD-100 (BRAFMT CRC cells [5]): strong synergy
cell death following BOLD-100 treatment (BRAFMT CRC cells [1]): increase cell death
apoptosis when combined with BOLD-100 (BRAFMT CRC cells [1]): apoptosis
